Laboratory results taken from patent US11623909B2, “Water-based extraction and purification processes for cannabinoid acids” (MEDPHARM IOWA LLC, priority 2019, dated 2023).

What was measured:
[1] = Solubility limit of THCA anions in aqueous NaOH wash (experiment A, 1:1 NaOH:THCA); assay type: physicochemical; conditions: NaOH:THCA 1:1 mol:mol, room temperature, conditions of experiment A
Method: ‘Spent’ CO2-stripped biomass was aliquoted out to 50 g portions (˜6 g THCA). Water (400 ml) and a 40 wt % solution of NaOH (see Tables 4-6) was added to the plant material. The mixture was allowed to stir for 10 minutes at 500-1000 RPM (speed was adjusted to minimize foaming). Solid materials were filtered off with coffee filters. The process was repeated for a total of 4 (Expt A) to 5 (Expts B&C) iterations. A final rinse 2×200 ml with no NaOH was stirred for 1 minute then filtered off. All filtrate was analyzed by HPLC prior to acidification. Acidification to pH 2-3 with HCl, as described above, yielded a precipitate which was filtered off and dried. Both the filtrate and dried material were analyzed by HPLC. All extractions were done at room temperature.
Experiment A utilized a NaOH:THCA (mol:mol) ratio of 1:1 (see Table 4). […] The amount of THCA detected in the filtrate increased with each successive wash until a rinse with no added NaOH was conducted for 1 minute. […] The precipitate was filtered off, collected, and analyzed by HPLC. The filtrate was acidified to pH 2.16 to yield a tan/brown precipitate, filter, collected and analyzed by HPLC. […] The final filtrate (left over after harvesting THCA) contained THCA quantities that were below the limit of quantification (less than 10 mg/400 g wash/rinse; that is <0.001 wt % THCA).

[2] = HPLC of acidified solution after precipitation of cannabinoid acid (amount remaining in solution); assay type: physicochemical
Description: Precipitation of crude extract (CBDA) by acidification was done with either hydrochloric acid or nitric acid. No difference was observed between the two since the precipitation was pH driven. 1.0-1.5 equivalents of acid (relative to total base) was sufficient for precipitation of the crude extract. The crude extract had CBDA purities on the order of 40-50% and were independent of the amount of acid added. E.g. adding fewer than 1.0 equivalents in an attempt to selectively precipitate either impurities or CBDA yielded crude material with similar purities. Addition of more acid yielded more precipitate of similar purity (up to 1.0-1.5 equivalents). Addition of more than 1.5 equivalents yielded no additional precipitate. Though when the mixture was allowed to sit overnight more white precipitate formed. […]
‘Spent’ CO2-stripped biomass was aliquoted out to 50 g portions (˜6 g THCA). […] All filtrate was analyzed by HPLC prior to acidification. […] Both the filtrate and dried material were analyzed by HPLC. […]
Experiment A utilized a NaOH:THCA (mol:mol) ratio of 1:1 (see Table 4). […] The amount of THCA detected in the filtrate increased with each successive wash until a rinse with no added NaOH was conducted for 1 minute. […] The precipitate was filtered off, collected, and analyzed by HPLC. The filtrate was acidified to pH 2.16 to yield a tan/brown precipitate, filter, collected and analyzed by HPLC. […]

Row | Compound | solubility limit for THCA anions [1] | THCA in final filtrate after acidification (below limit of quantification) ([2]; filtrate after acidification to pH 2-3 with HCl and harvesting THCA, experiment A) [wt % THCA] | CBDA remaining in acidified solution (loss) ([2]; acidified solution pH~4, after precipitation of crude extract) [μg CBDA/ml]
1 | CCCCCc1cc2c(c(O)c1C(=O)O)[C@@H]1C=C(C)CC[C@H]1C(C)(C)O2 [THCA] | around 0.3 wt % | < 0.001 | 
2 | C=C(C)[C@@H]1CCC(C)=C[C@H]1c1c(O)cc(CCCCC)c(C(=O)O)c1O [CBDA] |  |  | ~7
